Literature values as cited in patent US6852845B1, “Method of identifying toxic agents using NSAID-induced differential gene expression in liver” (Curagen Corporation, priority 1999, dated 2005).

Assays:
[1] = tested on: liver; settings: risk class assigned to each NSAID (low, very low, overdose risk)
[2] = tested on: liver; settings: injury type classes of Table 5: hepatocellular damage, cholestasis, elevated transaminase level

Compound	Hepatotoxicity Risk of NSAIDs: Risk [1]	type of hepatoxicity injury induced by the NSAID [2]
Cc1ccc(Cl)c(Nc2ccccc2C(=O)O)c1Cl [Meclofenamate]	Very Low Risk	–
CC(C(=O)O)c1ccc(-c2ccccc2)c(F)c1 (stereo not shown) [Flurbiprofen]	Very Low Risk	hepatocellular damage
CCOc1ccc(NC(C)=O)cc1 [Phenacetin]	Overdose Risk	–
CC(C(=O)O)c1cccc(Oc2ccccc2)c1 (stereo not shown) [Fenoprofen]	Very Low Risk	–
CN1C(C(=O)Nc2ccccn2)=C(O)c2ccccc2S1(=O)=O [Piroxicam]	Very Low Risk	–
CCCCC1C(=O)N(c2ccccc2)N(c2ccccc2)C1=O [Phenylbutazone]	Low Risk	–
Cc1cccc(Nc2ccccc2C(=O)O)c1C [Mefenamic Acid]	Very Low Risk	elevated transaminase level
CCc1cccc2c3c([nH]c12)C(CC)(CC(=O)O)OCC3 (stereo not shown) [Etodolac]	Very Low Risk	–
O=C(O)Cc1ccccc1Nc1c(Cl)cccc1Cl [Diclofenac]	Low Risk	–
CC1=C(CC(=O)O)c2cc(F)ccc2/C1=C\c1ccc([S+](C)[O-])cc1 (stereo not shown) [Sulindac]	Low Risk	cholestatis-inducing
CN1C(C(=O)Nc2ccccn2)=C(O)c2sccc2S1(=O)=O [Tenoxicam]	Very Low Risk	elevated transaminase level
Cc1cc(CC(=O)O)n(C)c1C(=O)c1ccc(Cl)cc1 [Zomepirac]	Very Low Risk	elevated transaminase level
O=C(O)CCc1nc(-c2ccccc2)c(-c2ccccc2)o1 [Oxaprozin]	Very Low Risk	–
Nc1c(CC(=O)O)cccc1C(=O)c1ccc(Br)cc1 [Bromfenac]	Low Risk	–
CC(C(=O)O)c1ccc(C(=O)c2cccs2)cc1 (stereo not shown) [Suprofen]	Very Low Risk	–
COc1ccc2cc(CCC(C)=O)ccc2c1 [Nabumetone]	Very Low Risk	cholestatis-inducing
CC(=O)Oc1ccccc1C(=O)O [Acetylsalicylic Acid]	Overdose Risk	–
Cc1ccc(C(=O)c2ccc(CC(=O)O)n2C)cc1 [Tolmentin]	Very Low Risk	–
CC(C(=O)O)c1cccc(C(=O)c2ccccc2)c1 (stereo not shown) [Ketoprofen]	Very Low Risk	–
COc1ccc2c(c1)c(CC(=O)O)c(C)n2C(=O)c1ccc(Cl)cc1 [Indomethacin]	Very Low Risk	–
CC(C(=O)O)c1ccc2oc(-c3ccc(Cl)cc3)nc2c1 (stereo not shown) [Benoxaprofen]	Low Risk	cholestatis-inducing
